Results reported in PMC5331433, “Ustiloxin G, a New Cyclopeptide Mycotoxin from Rice False Smut Balls” (Toxins, 2017).

Columns and labels:
[1] = system: HepG2; assay: Cytotoxicity, MTT assay, HepG2; assay type: cell-based, human; conditions: 24 h treatment, absorbance 570 nm, three replicates
Description: (§1) Cytotoxicity of the compounds were tested against human carcinoma cells using the microculture methyl-thiazolyl-tetrazolium (MTT) assay as described previously. Briefly, the cell lines were maintained in a humidified atmosphere containing 5% CO2 at 37 °C. For preparing working solution, 1 μmol of each purified ustiloxin was dissolved in 10 mL of ultrapure water to obtain the stock solution (100 μM), which was further diluted to a series of concentrations (50, 25, 12.5, 6.25, 3.125, 1, 0.1, 1 × 10^−2, 1 × 10^−3, 1 × 10^−4, 1 × 10^−5 μM) with ultrapure water. Normally, 200 μL of the cell suspensions (5 × 10^4 cells/mL) was plated in 96-well culture plates at 37 °C. After 12 h, 20 μL of working solution was added to each well respectively and cultured at 37 °C for 24 h. Then, MTT was dissolved in saline to 5 mg/mL, and 20 μL of this solution was added to each well. After 4 h, the medium was removed, and then 100 μL of DMSO was added to dissolve any formazan crystals formed. Absorbance was then determined at 570 nm. The cell lines of colon cancer cells (HCT-116), non-small-cell lung carcinoma cells (NCI-H1650), gastric cancer cells (BGC-823), and liver hepatocellular carcinoma cells (HepG2) were tested for all isolated compounds. In addition, lung adenocarcinoma cells (A549) were tested on ustiloxins A (2), B (3), and G (1), and melanoma cells (A375) were tested on ustiloxin G (1). Ultrapure water and taxol were used as the negative and positive controls, respectively. All experiments were performed with three replicates.

[2] = system: A375; assay: Cytotoxicity, MTT assay, A375; assay type: cell-based, human; conditions: 24 h treatment, absorbance 570 nm, three replicates
Description: as §1, with “Ultrapure water and taxol were used as the negative and positive controls, respectively. All experiments were performed with three replicates.” left out

[3] = system: NCI-H1650; assay: Cytotoxicity, MTT assay, NCI-H1650; assay type: cell-based, human; conditions: 24 h treatment, absorbance 570 nm, three replicates
Description: as §1

[4] = system: BGC-823; assay: Cytotoxicity, MTT assay, BGC-823; assay type: cell-based, human; conditions: 24 h treatment, absorbance 570 nm, three replicates
Description: as §1

[5] = system: A549; assay: Cytotoxicity, MTT assay, A549; assay type: cell-based, human; conditions: 24 h treatment, absorbance 570 nm, three replicates
Description: as §1

[6] = system: HCT116; assay: Cytotoxicity, MTT assay, HCT116; assay type: cell-based, human; conditions: 24 h treatment, absorbance 570 nm, three replicates
Description: as §1

[7] = system: rice (Oryza sativa) seeds, germ; assay: Inhibition of germ elongation of rice seeds; conditions: 48 h, 25 °C, dark, mean of triplicate ± SD
Description: (§2) Phytotoxicity of the compounds was evaluated by their inhibitory activities on the radicle and germ elongation of rice (Oryza sativa) seeds. Two varieties (Lijiang and Zhonghua 11) of the seeds, which were obtained from Prof. Zejian Guo (Department of Plant Pathology and collected in 2015, China Agricultural University) were used.
(§3) The bioassay was performed using the method described previously with some modifications. Briefly, five 3-day germinated rice seeds of each rice variety were sown onto each well of a 24-well plate, containing 200 μL of working solution. For preparing working solution, 1 mg of each purified compound was dissolved in 1 mL of ultrapure water to obtain the stock solution (1 mg/mL), which was further diluted to a series of concentrations (200, 100, 50, 20, and 10 μg/mL) with ultrapure water. The ultrapure water was used as the negative control, and glyphosate (N-(phosphonomethyl)glycine) at the same concentrations as the positive control. Plates were incubated in a moist chamber at 25 °C in the dark. The length of each radicle or germ was measured after treatment for 48 h. The inhibition of radicle or germ elongation was calculated as follows: Inhibition (%) = [(Lc − Lt)/Lc] × 100, where Lc is the radicle or germ length of the control group, and Lt is the length of the treated group.
(§4) All experiments were performed with three replicates, and the results were represented by their mean values and the standard deviations (SD). The data were carried out using analysis of variance (one-way ANOVA) to detect significant differences by PROC ANOVA of SAS version 8.2.

[8] = system: rice (Oryza sativa) seeds, radicle; assay: Inhibition of radicle elongation of rice seeds; conditions: 48 h, 25 °C, dark, mean of triplicate ± SD
Description: as §2, §3, §4

[9] = system: rice seedlings; assay: Abnormal swelling of roots and germs of rice seedlings; set-up: species or system Oryza sativa; conditions: observation in words; Figure 3B shows 200 µg/mL of ustiloxin G, variety Lijiang
Description: as §3

Structure (SMILES): CC(=O)O[C@H]1C(=O)[C@@]2(C)[C@H]([C@H](OC(=O)c3ccccc3)[C@]3(O)C[C@H](OC(=O)[C@H](O)[C@@H](NC(=O)c4ccccc4)c4ccccc4)C(C)=C1C3(C)C)[C@]1(OC(C)=O)CO[C@@H]1C[C@@H]2O [Taxol, reference compound]
- IC50 ([1]; Homo sapiens, HepG2, liver hepatocellular carcinoma cells): 0.0146 µM
- IC50 ([2]; Homo sapiens, A-375, melanoma cells): 0.022 µM
- IC50 ([3]; Homo sapiens, NCI-H1650, non-small-cell lung carcinoma cells): 1.1 µM
- IC50 ([4]; Homo sapiens, BGC-823, gastric cancer cells): 0.000107 µM
- IC50 ([5]; Homo sapiens, A549, lung adenocarcinoma cells): 0.023 µM
- IC50 ([6]; Homo sapiens, HCT-116, colon cancer cells): 0.0019 µM

Structure (SMILES): CC[C@@]1(C)Oc2cc(c([S+]([O-])CCO)cc2O)[C@@H](O)[C@H](NC)C(=O)N[C@@H](C(C)C)C(=O)N[C@@H]1C(=O)NCC(=O)O (stereo partly drawn) [Ustiloxin G (1), ustiloxin G]
- Inhibition Ratio (%) Seed Germ Var. Lijiang ([7]; 10 µg/mL): 2.74 ± 4.76 l %
- Inhibition Ratio (%) Seed Germ Var. Zhonghua 11 ([7]; 10 µg/mL): 14.11%
- Inhibition Ratio (%) Seed Germ Var. Lijiang ([7]; 20 µg/mL): 8.89%
- Inhibition Ratio (%) Seed Germ Var. Zhonghua 11 ([7]; 20 µg/mL): 14.68%
- Inhibition Ratio (%) Seed Germ Var. Lijiang ([7]; 50 µg/mL): 27.96 ± 3.32 f %
- Inhibition Ratio (%) Seed Germ Var. Zhonghua 11 ([7]; 50 µg/mL): 36.29%
- Inhibition Ratio (%) Seed Germ Var. Lijiang ([7]; 100 µg/mL): 36.95 ± 5.23 e %
- Inhibition Ratio (%) Seed Germ Var. Zhonghua 11 ([7]; 100 µg/mL): 39.33%
- Inhibition Ratio (%) Seed Germ Var. Lijiang ([7]; 200 µg/mL): 65.01%
- Inhibition Ratio (%) Seed Germ Var. Zhonghua 11 ([7]; 200 µg/mL): 50.45%
- IC50 ([1]; liver hepatocellular carcinoma cells): > 50 µM
- IC50 ([2]; melanoma cells): 22.5 µM
- Inhibition Ratio (%) Seed Radicle Var. Lijiang ([8]; 10 µg/mL): 12.56%
- Inhibition Ratio (%) Seed Radicle Var. Zhonghua 11 ([8]; 10 µg/mL): 27.27%
- Inhibition Ratio (%) Seed Radicle Var. Lijiang ([8]; 20 µg/mL): 17.00%
- Inhibition Ratio (%) Seed Radicle Var. Zhonghua 11 ([8]; 20 µg/mL): 31.67%
- Inhibition Ratio (%) Seed Radicle Var. Lijiang ([8]; 50 µg/mL): 37.64 ± 1.21 g %
- Inhibition Ratio (%) Seed Radicle Var. Zhonghua 11 ([8]; 50 µg/mL): 54.14 ± 4.20 d %
- Inhibition Ratio (%) Seed Radicle Var. Lijiang ([8]; 100 µg/mL): 90.33%
- Inhibition Ratio (%) Seed Radicle Var. Zhonghua 11 ([8]; 100 µg/mL): 90.16 ± 3.62 a %
- Inhibition Ratio (%) Seed Radicle Var. Lijiang ([8]; 200 µg/mL): 95.19 ± 1.92 a %
- Inhibition Ratio (%) Seed Radicle Var. Zhonghua 11 ([8]; 200 µg/mL): 93.40 ± 1.91 a %
- IC50 ([3]; non-small-cell lung carcinoma cells): > 50 µM
- IC50 ([4]; gastric cancer cells): > 50 µM
- IC50 ([5]; lung adenocarcinoma cells): 36.5 µM
- IC50 ([6]; colon cancer cells): > 50 µM
- abnormal swelling of the roots and germs of rice seedlings [9]: abnormal swelling
